Assay results: US20150050235A1, “COMPOSITION FOR ATTRACTING MALE BLUEBERRY SPANWORM MOTH” (Her Majesty the Queen in Right of Canada, as represented by …, priority 2013, published 2015)

How the values were obtained:
Itame brunneata = settings: without (Z,Z,Z)-3,6,9-17:H in the mixture; cited from earlier work
[1] = system: male I. argillacearia moths; assay: Field experiment no. 1: captures of male moths in baited Delta traps; type: in vivo, Itame argillacearia; settings: 50 μg per constituent, rubber septa in Delta traps, n=10
Description: Field Experiments. Two field experiments were conducted during the moth flight season in 2012. Traps were deployed in vegetative lowbush blueberry fields located in Farmington (field experiment no. 1) and Debert (field experiment no. 2), Nova Scotia. Lowbush blueberries are typically produced on a biennial cycle. After harvest, plants are pruned and enter a year-long vegetative phase.
In both field experiments, traps were arranged in a randomized complete block design with ten replicates in the first experiment and six replicates in the second field experiment. Counts of male moths in traps were done twice per week. Trap data were log10 (x+1) transformed to satisfy assumptions of normality and equal variance and were analyzed by ANOVA using Proc Mixed (SAS, 2001). Where significant differences were detected, Fisher's least significant difference (LSD) was used for multiple mean comparisons among treatments.
The first experiment attempted to clarify: (1) whether enantiomers of the tested epoxide compound differed in the ability to attract male I. argillacearia moths; and (2) whether a mixture of the tested epoxide and triene compounds was more attractive to male moths than each constituent alone.
Rubber septa (Wheaton, N.J., USA) loaded with treatments were placed within Delta® traps (Contech, Delta, British Columbia) with sticky inserts to capture moths. Traps were placed approximately 20 m apart (Cantelo et al., 1982; Hillier, 2001; Hillier et al., 2002), and suspended from iron stakes just above the blueberry canopy. The experiment had seven treatments.
Virgin female moths were held in 25 ml plastic Solo™ cups (TRA Cash and Carry, Truro, NS, Canada) perforated with approximately 20 5-mm holes. Traps were in the field from 9-26 Jul. 2012 and were emptied or replaced twice per week during this period.

SMILES	capture of moths (Itame brunneata)	captures of male moths in traps (in words) [1]
CCCCCCC/C=C\C/C=C\C[C@@H]1O[C@@H]1CC (relative stereo) [3R,4S-epoxy-(Z,Z)-6,9-17:H, Z,Z-(3R,4S)-cis-3,4-epoxy-6,9-heptadecadiene]	captured	a significant number of moths were found
CC/C=C\C/C=C\C/C=C\CCCCCCC [(Z,Z,Z)-3,6,9-17:H, Z,Z,Z-3,6,9-heptadecatriene]		Very few moths were recovered
CCCCCCC/C=C\C/C=C\C[C@H]1O[C@H]1CC [3S,4R-epoxy-(Z,Z)-6,9-17:H, Z,Z-(3S,4R)-3,4-epoxy-6,9-heptadecadiene]		lack of captured moths
